Laboratory results: patent publication US5508304A, “Glucagon antagonists and methods relating thereto” (ZymoGenetics, Inc., priority 1994, dated 1996)

Legend:
glucagon receptor = molecular target: T1, glucagon receptor (Rattus norvegicus, UniProt P30082); test: Adenylate cyclase assay: glucagon-stimulated cAMP production in liver plasma membranes (Amersham Scintillation Proximity Assay kit); format: biochemical; details: for cAMP response to glucagon, serial dilutions of test substance: fixed 5 nM glucagon stock, 5 μl per well; for inhibition of cAMP activity with increasing concentration of test substance (FIG. 7): fixed concentration of glucagon
T1 construct: Liver plasma membranes for use in adenylate cyclase assays were prepared; from tissue; host or cells: rat liver plasma membranes
T1 sequence (P30082 27-485): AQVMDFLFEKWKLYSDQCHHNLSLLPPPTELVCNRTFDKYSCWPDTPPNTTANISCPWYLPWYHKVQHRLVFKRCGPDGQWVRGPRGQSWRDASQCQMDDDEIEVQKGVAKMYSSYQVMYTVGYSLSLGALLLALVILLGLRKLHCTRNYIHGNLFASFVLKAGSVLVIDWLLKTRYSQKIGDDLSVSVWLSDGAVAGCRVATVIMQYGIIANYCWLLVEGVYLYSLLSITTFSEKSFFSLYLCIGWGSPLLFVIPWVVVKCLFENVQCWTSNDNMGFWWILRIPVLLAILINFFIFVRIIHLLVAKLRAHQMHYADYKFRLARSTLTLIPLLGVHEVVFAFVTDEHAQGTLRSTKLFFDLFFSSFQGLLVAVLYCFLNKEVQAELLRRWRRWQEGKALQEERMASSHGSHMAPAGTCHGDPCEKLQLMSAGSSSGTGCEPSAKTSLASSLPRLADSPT
Procedure: Liver plasma membranes for use in adenylate cyclase assays were prepared essentially as described by Neville et al. (Biochim. Biophys. Acta 154:540-552, 1968) as modified by Pohl (Methods in Receptor Research, Blecher (ed.), New York, pp. 160-164, 1976). Twenty rats were euthanized by decapitation, and the livers were removed and cooled to 4° C. After cooling, the livers were maintained at 4° C. during the membrane preparation. The approximate volume of the livers was determined. Three volumes of medium (1 mM NaHCO3, 0.5 mM CaCl2) were added to the livers, and the liver tissue was roughly minced with scissors. The minced tissue was divided into two parts, and each part was homogenized for thirty seconds in a Waring-type blender at full speed. After homogenization, the homogenates were each transferred to a sieve with a 1.5 mm pore size, and the homogenates were strained through the sieve. The straining procedure was repeated for each homogenate through a finer screen. The strained homogenates were combined, and medium was added to a final volume of one liter. The homogenate was further homogenized with a Dounce homogenizer using eight vigorous strokes of the loose pestle. The homogenates were filtered through four layers of cheesecloth. The strained homogenates were centrifuged at approximately 150×g in a swinging bucket rotor for 20 minutes at 4° C. The supernalant was discarded, and the precipitate was resuspended in 500 ml of medium and homogenized in a Dounce homogenizer with three strokes of the loose pestle. The centrifugation was repeated, and the resulting precipitate was resuspended in 250 ml of medium. The homogenate was centrifuged as described, and the precipitate was suspended in 50 to 100 ml of medium. The suspension was homogenized in a Dounce homogenizer with three strokes of the loose pestle. Sucrose from a 69% sucrose solution was added to the suspension to a final sucrose concentration of 44.0±0.1%. The solution was centrifuged in an ultracentrifuge at approximately 100,000×g for 150 minutes. The membranes were removed from the top of the tube with a spoon. The membranes were stored at -80° C.
Adenylate cyclase assays were carried out in the presence and absence of […] diluted in DMSO. Glucagon (Mallinkrodt Inc. St. Louis, Mo.) was dissolved in 10% acetic acid and lyophilized in 25-μg portions. The lyophilized glucagon was dissolved in 100 μl of 0.05M HCl and left for three minutes, after which the glucagon was serially diluted in buffer (2.5% human serum albumin (Grade 5, Sigma Chemical Co., St. Louis, Mo.) in 0.1M HEPES, 0.15M NaCl, pH 7.4) to final concentrations of between 0 and 100 nM. Aliquots of the membrane preparations were thawed and diluted with water to a protein concentration of approximately 3-5 mg/ml.
For each 96-well assay plate, triplicate samples were assayed in the presence and absence of 20 μM skyrin. […] Five microliters of 20 μM skyrin in DMSO or 5 μl of DMSO alone was added to each well. Fifty microliters of incubation mixture (0.1% human serum albumin (Grade 5, Sigma), 15 mM MgCl2, 1 mM ATP, 0.9 mM IBMX (3-isobutyl-1-methylxanthine, Sigma), 15 mM creatine phosphate, and 5 mg/ml creatine phosphokinase in 50 mM Tris-HCl (pH 7.4) was then added to each well. […]
The cAMP produced in each reaction was determined by assaying 10 μl of each sample using an Amersham Scintillation Proximity Assay kit (Amersham, Arlington Heights, Ill.). […]

[1] = test system: rice dwarf virus-RNA transcriptase; details: Yangai et al. 1976; cited from earlier work
[2] = test system: GTPγS-stimulated cAMP production; test: Adenylate cyclase assay with GTPγS, receptor-independent stimulation of cAMP production; format: biochemical, rat
Procedure: (§1) Liver plasma membranes for use in adenylate cyclase assays were prepared essentially as described by Neville et al. (Biochim. Biophys. Acta 154:540-552, 1968) as modified by Pohl (Methods in Receptor Research, Blecher (ed.), New York, pp. 160-164, 1976). Twenty rats were euthanized by decapitation, and the livers were removed and cooled to 4° C. After cooling, the livers were maintained at 4° C. during the membrane preparation. The approximate volume of the livers was determined. Three volumes of medium (1 mM NaHCO3, 0.5 mM CaCl2) were added to the livers, and the liver tissue was roughly minced with scissors. The minced tissue was divided into two parts, and each part was homogenized for thirty seconds in a Waring-type blender at full speed. After homogenization, the homogenates were each transferred to a sieve with a 1.5 mm pore size, and the homogenates were strained through the sieve. […]
(§2) The cAMP produced in each reaction was determined by assaying 10 μl of each sample using an Amersham Scintillation Proximity Assay kit (Amersham, Arlington Heights, Ill.).
(§3) The specificity of the skyrin antagonist activity was assessed by replacing the serial dilutions of glucagon with serial dilutions of vasoactive intestinal peptide (VIP; Sigma Chemical Co., St. Louis, Mo.), calcitonin gene-related peptide (CGRP), forskolin (Calbiochem, San Diego, Calif.) and GTP-γS. […]

[3] = test system: forskolin-stimulated cAMP production; test: Adenylate cyclase assay with forskolin, receptor-independent stimulation of cAMP production; format: biochemical, rat; details: presence and absence of 0.02 mM skyrin
Procedure: as §1, §2, §3

[4] = molecular target: T2, glucagon binding to rat liver membranes (Rattus norvegicus, UniProt P30082); test: 125I-glucagon binding to rat liver membranes; details: 20 μl of 56 μM skyrin vs DMSO; 30 min at 30° C.; FIG. 8
T2 construct: 0.2 mg of rat liver membranes in 20 μl in water; from tissue; host or cells: rat liver membranes
T2 sequence (P30082 27-485): as above
Procedure: Glucagon binding to rat liver membranes in the presence and absence of skyrin was determined in this experiment. Reactions tubes were prepared, each of which contained 20 μl of serially diluted unlabeled glucagon from 10^-5 M to 10^-10 M, 100 μl of 2× binding buffer (100 mM HEPES, pH 7.6), 200 mM NaCl, 2 mM EDTA, 2.0% bovine serum albumin (BSA), 1.0 mg/ml of bacitracin (Sigma Chem. Co.), approximately 0.1 nmoles of ^125 I-glucagon (Amersham) in 10 mM acetic acid/0.5% BSA with a specific activity of 2000 Ci/mmole, 20 μl of 56 μM skyrin (dissolved and diluted in DMSO) or DMSO, and water to achieve a final volume of 180 μl. The reaction was initiated by the addition of 0.2 mg of rat liver membranes in 20 μl in water. The reactions were incubated for 30 minutes at 30° C. After incubation the tubes were centrifuged at high speed in a microfuge for 10 minutes at 4° C. The supernatants were discarded, and the radioactivity in the pellets was quantitated with a gamma-counter (the level of radioactivity in a sample indicated the total binding of glucagon to the rat liver membranes). […] Based on this experiment, it is believed that the glucagon antagonists of this invention, including skyrin and skyrin analogs, function as glucagon antagonists by interrupting postglucagon binding events.

[5] = Stark et al. 1978; cited from earlier work
[6] = molecular target: T3, VIP-stimulated non-glucagon G protein-coupled receptors in liver membranes (Rattus norvegicus, UniProt P30083); test: Adenylate cyclase assay with VIP in place of glucagon; format: biochemical; details: serial dilutions of VIP, with and without skyrin; FIG. 4
T3 construct: Liver plasma membranes for use in adenylate cyclase assays were prepared; from tissue; host or cells: rat liver plasma membranes
T3 sequence (P30083 31-459): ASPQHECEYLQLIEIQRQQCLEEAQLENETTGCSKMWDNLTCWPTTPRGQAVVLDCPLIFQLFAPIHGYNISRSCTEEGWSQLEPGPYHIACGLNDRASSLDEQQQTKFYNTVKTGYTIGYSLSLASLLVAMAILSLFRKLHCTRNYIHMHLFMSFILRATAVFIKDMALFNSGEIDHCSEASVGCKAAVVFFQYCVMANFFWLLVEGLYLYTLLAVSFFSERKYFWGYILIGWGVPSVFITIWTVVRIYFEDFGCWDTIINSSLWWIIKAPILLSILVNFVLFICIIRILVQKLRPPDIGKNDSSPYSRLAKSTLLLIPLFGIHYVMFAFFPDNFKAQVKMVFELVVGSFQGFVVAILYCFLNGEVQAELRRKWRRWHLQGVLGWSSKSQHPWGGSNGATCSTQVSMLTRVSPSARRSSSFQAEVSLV
Procedure: as §1, §2, §3

[7] = molecular target: T4, CGRP-stimulated non-glucagon G protein-coupled receptors in liver membranes (Rattus norvegicus, UniProt Q63118); test: Adenylate cyclase assay with CGRP in place of glucagon; format: biochemical; details: serial dilutions of CGRP, with and without skyrin; FIG. 5
T4 construct: Liver plasma membranes for use in adenylate cyclase assays were prepared; from tissue; host or cells: rat liver plasma membranes
T4 sequence (Q63118 24-464): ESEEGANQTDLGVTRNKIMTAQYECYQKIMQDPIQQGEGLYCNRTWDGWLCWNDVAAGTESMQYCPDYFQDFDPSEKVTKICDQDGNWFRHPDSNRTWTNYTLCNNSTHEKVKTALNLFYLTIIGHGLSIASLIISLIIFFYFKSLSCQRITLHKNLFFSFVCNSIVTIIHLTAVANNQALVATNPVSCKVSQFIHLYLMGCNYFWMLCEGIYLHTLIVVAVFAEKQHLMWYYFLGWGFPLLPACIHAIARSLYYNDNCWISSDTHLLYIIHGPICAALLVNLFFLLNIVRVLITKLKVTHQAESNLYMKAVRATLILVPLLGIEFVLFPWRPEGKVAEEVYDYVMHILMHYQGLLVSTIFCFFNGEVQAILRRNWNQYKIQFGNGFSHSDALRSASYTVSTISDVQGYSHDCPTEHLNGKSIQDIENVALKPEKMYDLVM
T4 sequence (Q9JJ74 27-148 partner): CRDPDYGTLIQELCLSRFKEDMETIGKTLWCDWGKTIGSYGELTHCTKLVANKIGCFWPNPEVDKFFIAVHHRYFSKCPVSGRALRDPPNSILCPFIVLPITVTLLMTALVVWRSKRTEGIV
Procedure: as §1, §2, §3

rat liver mitochondria = details: cited from earlier work
[8] = test system: rat leukemia cell mitochondria; details: cited from earlier work

| cAMP response to glucagon, serial dilutions of test substance (glucagon receptor) | inhibition of cAMP activity with increasing concentration of test substance (FIG. 7) (glucagon receptor) | cAMP levels produced by GTPγS ([2]; presence and absence of 0.02 mM skyrin) | GTPγS-stimulated cAMP levels (FIG. 6) ([2]; presence of 0.2 mM skyrin as printed) | cAMP levels produced by forskolin [3] | binding of glucagon to rat liver membrane [4] | stimulation of cAMP production by VIP [6] | stimulation of cAMP production by CGRP [7] | cAMP response to glucagon (glucagon receptor; 20 μM skyrin in DMSO vs DMSO alone, glucagon 0-100 nM, FIG. 3) | Compound | inhibition of rice dwarf virus-RNA transcriptase [1] | mutagenicity [5] | uncoupling of oxidative phosphorylation (rat liver mitochondria) | uncoupling of oxidative phosphorylation [8] |
| --- | --- | --- | --- | --- | --- | --- | --- | --- | --- | --- | --- | --- | --- |
| inhibited cAMP response to glucagon | increase in inhibition of cAMP activity | – | – | – | – | – | – | – | Cc1cc(O)c2c(c1)C(=O)c1c(c(O)cc(O)c1-c1c(O)cc(O)c3c1C(=O)c1cc(CO)cc(O)c1C3=O)C2=O [oxyskyrine] | – | – | – | – |
| inhibited cAMP response to glucagon | increase in inhibition of cAMP activity | unaffected | uneffected | unaffected | increased binding of glucagon | did not affect the stimulation | did not affect the stimulation | inhibited the cAMP response to glucagon | Cc1cc(O)c2c(c1)C(=O)c1c(c(O)cc(O)c1-c1c(O)cc(O)c3c1C(=O)c1cc(C)cc(O)c1C3=O)C2=O [skyrin] | selectively inhibit | non-mutagenic | uncouple oxidative phosphorylation | uncouple oxidative phosphorylation |
